Experimental data as given in the NIST ThermoML archive (doi:10.1016/j.tca.2012.02.020).
Numbers after ± are expanded uncertainties.

Tests used:
[1] = Crystal; visual observation
[2] = Molar enthalpy of transition or fusion; conditions: Crystal; DSC

| Structure (SMILES) | Normal melting temperature [1] | Molar enthalpy of transition or fusion [2] |
| --- | --- | --- |
| Clc1ccc(Br)cc1 [1-bromo-4-chlorobenzene] | 65.00 ± 1 °C | 4.76 ± 0.143 kcal/mol |
| O=Cc1cccc(O)c1 [3-hydroxybenzaldehyde] | 103.00 ± 1 °C | 5.76 ± 0.167 kcal/mol |
| Nc1cccc(O)c1 [3-hydroxybenzenamine] | 123.00 ± 1 °C | 6.6 ± 0.191 kcal/mol |
| c1ccc(-c2ccccc2)cc1 [biphenyl] | 70.50 ± 1 °C | 4.61 ± 0.143 kcal/mol |
